Consider twelve compounds from the supplement of paper PMC11451515.

Common to all, as to assay: AUC of viability dose-response curve (% viability x log10 dose units); higher = less sensitive
Holding throughout (conditions): 48 h

The test system of one test is NOMO1. The method in brief: (§1)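 Over 48 h at 37°C, leukemia cells in 1536-well plates (500 or 1000 cells/well), adapted to each medium, received library compounds in DMSO at 11 threefold doses from 47 μM to 0.79 nM. CellTiter-Glo One luminescence, normalised per plate to DMSO and cell-free wells, was fitted by a four-parameter log-logistic function of log10 dose. The area under the curve was then integrated by trapezoidal rule, after scaling curves above full viability and removing those that failed quality control.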

Another test relates to P12-Ichikawa. The method in brief:
as §1

The test system of a further test is SEM cells. In short, it runs like this:
as §1

Setting [1] is: RPMI 5 mM glucose + 10% dialyzed FBS.

SMILES strings stand for the structures.

Regarding `CC(C)(C)c1cc(C(=O)O)c(NC(=O)Nc2ccc3[nH]ncc3c2)s1`, the “AUC of viability dose-response curve” value with NOMO1 (HPLM + 10% dialyzed FBS) is 427; with NOMO1 (RPMI 5 mM glucose + 10% FBS), 418; in the test on NOMO1 (setting [1]), 422; in the test with P12-Ichikawa (HPLM + 10% dialyzed FBS), 433; in the test with P12-Ichikawa (RPMI 5 mM glucose + 10% FBS), 426; in the test with P12-Ichikawa (setting [1]) it was 438. Moreover, the “AUC of viability dose-response curve” value was found to be 442 with SEM cells (HPLM + 10% dialyzed FBS), 447 in the test with SEM cells (RPMI 5 mM glucose + 10% FBS) and 440 in the test with SEM cells (setting [1]).

With `O=C1NC(=O)/C(=C/c2cccc(C(F)(F)F)c2)S1`, the “AUC of viability dose-response curve” value with NOMO1 (HPLM + 10% dialyzed FBS) is 448; in the test on NOMO1 (RPMI 5 mM glucose + 10% FBS), 458; in the test on NOMO1 (setting [1]), 463; with P12-Ichikawa (HPLM + 10% dialyzed FBS) it was 471; in the test on P12-Ichikawa (RPMI 5 mM glucose + 10% FBS), 466; in the test with P12-Ichikawa (setting [1]), 453. Also, the results for the “AUC of viability dose-response curve” value with SEM cells (HPLM + 10% dialyzed FBS), in the test on SEM cells (RPMI 5 mM glucose + 10% FBS) and in the test with SEM cells (setting [1]) were 463, 463 and 467, respectively.

`Cc1ncc([N+](=O)[O-])n1CCO`: the “AUC of viability dose-response curve” value in the test with NOMO1 (HPLM + 10% dialyzed FBS) came to 467; in the test on NOMO1 (RPMI 5 mM glucose + 10% FBS), 462; with NOMO1 (setting [1]) it was 461; with P12-Ichikawa (HPLM + 10% dialyzed FBS), 477; in the test with P12-Ichikawa (RPMI 5 mM glucose + 10% FBS) it was 472; in the test with P12-Ichikawa (setting [1]), 469. Also, the entries for the “AUC of viability dose-response curve” value in the test with SEM cells (HPLM + 10% dialyzed FBS), in the test with SEM cells (RPMI 5 mM glucose + 10% FBS) and in the test on SEM cells (setting [1]) were 467, 477 and 449, respectively.

Take `CC(C)(C)NC(=O)[C@H]1CC[C@H]2[C@@H]3CC[C@H]4NC(=O)\C=C/[C@]4(C)[C@H]3CC[C@]12C`: the “AUC of viability dose-response curve” value came to 382 in the test on NOMO1 (HPLM + 10% dialyzed FBS); 365 with NOMO1 (RPMI 5 mM glucose + 10% FBS); 383 in the test with NOMO1 (setting [1]); 421 with P12-Ichikawa (HPLM + 10% dialyzed FBS); 421 with P12-Ichikawa (RPMI 5 mM glucose + 10% FBS); 450 in the test with P12-Ichikawa (setting [1]). Also, the results for the “AUC of viability dose-response curve” value with SEM cells (HPLM + 10% dialyzed FBS), in the test with SEM cells (RPMI 5 mM glucose + 10% FBS) and in the test on SEM cells (setting [1]) were 449, 457 and 459, respectively.

With `CC(C)(C)NC(=O)[C@@H]1CN(Cc2cccnc2)CCN1C[C@@H](O)C[C@@H](Cc1ccccc1)C(=O)N[C@H]1c2ccccc2C[C@H]1O.O=S(=O)(O)O`, the “AUC of viability dose-response curve” value was 472 in the test with NOMO1 (HPLM + 10% dialyzed FBS); 461 in the test on NOMO1 (RPMI 5 mM glucose + 10% FBS); 442 in the test with NOMO1 (setting [1]); 463 in the test on P12-Ichikawa (HPLM + 10% dialyzed FBS); 463 in the test on P12-Ichikawa (RPMI 5 mM glucose + 10% FBS); 455 in the test with P12-Ichikawa (setting [1]). Moreover, the “AUC of viability dose-response curve” value in the test with SEM cells (HPLM + 10% dialyzed FBS) turned out to be 439; in the test on SEM cells (RPMI 5 mM glucose + 10% FBS), 455; with SEM cells (setting [1]), 454.

Take `Cc1ccc(C(=O)c2cc(O)c(O)c([N+](=O)[O-])c2)cc1`: the “AUC of viability dose-response curve” value in the test on NOMO1 (HPLM + 10% dialyzed FBS) was 447; with NOMO1 (RPMI 5 mM glucose + 10% FBS), 424; with NOMO1 (setting [1]) it was 456; in the test with P12-Ichikawa (HPLM + 10% dialyzed FBS), 468; with P12-Ichikawa (RPMI 5 mM glucose + 10% FBS), 449; in the test on P12-Ichikawa (setting [1]), 434. For the same compound, the entries for the “AUC of viability dose-response curve” value in the test on SEM cells (HPLM + 10% dialyzed FBS), in the test with SEM cells (RPMI 5 mM glucose + 10% FBS) and with SEM cells (setting [1]) were 435, 466 and 434, respectively.

Take `C[S+]([O-])c1ccc(-c2nc(-c3ccc(F)cc3)c(-c3ccncc3)[nH]2)cc1` (stereo not drawn): the “AUC of viability dose-response curve” value was 358 with NOMO1 (HPLM + 10% dialyzed FBS); 357 in the test with NOMO1 (RPMI 5 mM glucose + 10% FBS); 334 in the test with NOMO1 (setting [1]); 380 in the test with P12-Ichikawa (HPLM + 10% dialyzed FBS); 359 in the test on P12-Ichikawa (RPMI 5 mM glucose + 10% FBS); 367 with P12-Ichikawa (setting [1]). Further, the “AUC of viability dose-response curve” value in the test with SEM cells (HPLM + 10% dialyzed FBS) was determined as 324; with SEM cells (RPMI 5 mM glucose + 10% FBS), 314; in the test on SEM cells (setting [1]), 324.

Regarding `CCNc1cc(NC2CCC(O)CC2)nc(Nc2ccc3c(ccn3Cc3ccccc3)c2)n1` (stereo not drawn), the “AUC of viability dose-response curve” value came to 471 with NOMO1 (HPLM + 10% dialyzed FBS); 472 in the test on NOMO1 (RPMI 5 mM glucose + 10% FBS); 464 in the test on NOMO1 (setting [1]); 474 with P12-Ichikawa (HPLM + 10% dialyzed FBS); 467 with P12-Ichikawa (RPMI 5 mM glucose + 10% FBS); 469 in the test on P12-Ichikawa (setting [1]). Also, the “AUC of viability dose-response curve” value in the test with SEM cells (HPLM + 10% dialyzed FBS) came out at 471; in the test with SEM cells (RPMI 5 mM glucose + 10% FBS) it was 471; with SEM cells (setting [1]), 466.

As for `O=c1[nH]cnc2c1ncn2[C@H]1CC[C@@H](CO)O1`, the “AUC of viability dose-response curve” value with NOMO1 (HPLM + 10% dialyzed FBS) came out at 447; in the test on NOMO1 (RPMI 5 mM glucose + 10% FBS), 420; with NOMO1 (setting [1]), 431; with P12-Ichikawa (HPLM + 10% dialyzed FBS), 468; in the test on P12-Ichikawa (RPMI 5 mM glucose + 10% FBS), 463; in the test on P12-Ichikawa (setting [1]) it was 444. Besides, the “AUC of viability dose-response curve” value with SEM cells (HPLM + 10% dialyzed FBS) turned out to be 460; with SEM cells (RPMI 5 mM glucose + 10% FBS), 409; in the test with SEM cells (setting [1]), 409.

With `O=C1NC(O)CCN1[C@@H]1O[C@H](CO)[C@@H](O)[C@H]1O` (stereo partly drawn), the “AUC of viability dose-response curve” value amounted to 435 with NOMO1 (HPLM + 10% dialyzed FBS); 459 in the test with NOMO1 (RPMI 5 mM glucose + 10% FBS); 457 with NOMO1 (setting [1]); 456 in the test with P12-Ichikawa (HPLM + 10% dialyzed FBS); 437 in the test on P12-Ichikawa (RPMI 5 mM glucose + 10% FBS); 467 in the test on P12-Ichikawa (setting [1]). For the same compound, the “AUC of viability dose-response curve” value amounted to 463 in the test on SEM cells (HPLM + 10% dialyzed FBS), 443 with SEM cells (RPMI 5 mM glucose + 10% FBS) and 465 in the test on SEM cells (setting [1]).

Regarding `N[C@@H](CC(=O)N1CCn2c(nnc2C(F)(F)F)C1)Cc1cc(F)c(F)cc1F`, the “AUC of viability dose-response curve” value in the test on NOMO1 (HPLM + 10% dialyzed FBS) is 451; in the test with NOMO1 (RPMI 5 mM glucose + 10% FBS) it was 417; in the test on NOMO1 (setting [1]), 461; in the test with P12-Ichikawa (HPLM + 10% dialyzed FBS) it was 463; with P12-Ichikawa (RPMI 5 mM glucose + 10% FBS), 453; with P12-Ichikawa (setting [1]), 445. The “AUC of viability dose-response curve” value in the test with SEM cells (HPLM + 10% dialyzed FBS) worked out at 448; in the test on SEM cells (RPMI 5 mM glucose + 10% FBS) it was 453; in the test on SEM cells (setting [1]), 449.

In the case of `CC(NCc1ccc2c(c1)[nH]/c(=N\C(=O)c1ccc(-c3cn[nH]c3)s1)n2CC(C)(C)O)C(C)(C)C` (stereo not drawn), the “AUC of viability dose-response curve” value turned out to be 321 in the test with NOMO1 (HPLM + 10% dialyzed FBS); 358 with NOMO1 (RPMI 5 mM glucose + 10% FBS); 347 in the test with NOMO1 (setting [1]); 350 in the test with P12-Ichikawa (HPLM + 10% dialyzed FBS); 349 with P12-Ichikawa (RPMI 5 mM glucose + 10% FBS); 345 with P12-Ichikawa (setting [1]). In addition, the “AUC of viability dose-response curve” value is 177 in the test on SEM cells (HPLM + 10% dialyzed FBS), 194 in the test with SEM cells (RPMI 5 mM glucose + 10% FBS) and 170 in the test with SEM cells (setting [1]).
